Laboratory results published in patent publication EP0550008A2, “Use of N-acyl derivatives of aminoalcohols with polycarboxylic acids for the manufacture of a medicament for the treatment of pathologies relating to mast cells” (LIFEGROUP S.p.A., priority 1991, dated 1993).

Experiments:
solubility in water = format: physicochemical
mast cells degranulation [1] = assay: in vivo mast cell degranulation induced by substance P in the auricular pinna, systemic subcutaneous pretreatment; parameters: species or system Sprague Dawley rats
Protocol: • 2 weeks old Sprague […] rats, provided by Charles River from Calco, were locally treated by intradermal injection on the auricular pinna with the compounds in question at the dose of 0.5mg/kg, in a buffered aqueous solution at physiological pH. After 10 minutes a local administration, still by intradermal route, followed, of the substance P (10^-4 M), able to induce a mast cells degranulation response. After 30' from the subtance P administration, the animals were sacrificed and the relative tissue samples (pinna) were taken, for an analysis of the morphological aspect of the mast cells residing in the connectival tissues after fixation and coloration with toluidine blue. The inhibition degree in mast cells degranulation in the tissues of the animals treated with the compounds under question, and compared with those of animals treated only with the physiological degranulation factor (substance P) was considered as a parameter for the biological activity. […] The pharmacologic activity of the compounds under question was also verified under conditions of a systemic subcutaneous administration. In this case the animals were firstly treated with 20 mg/kg of the substances under question and after 30 minutes were exposed to the degranulation stimulus with the substance P (10^-6 M) in the auricular pinna. Then we proceeded as previously described. In Tab.2 the obtained results are reported on an average of 500-800 cells. Tab.2

[2] = solubility in organic solvents; format: physicochemical; details: organic solvent or mixture
mast cells degranulation [3] = assay: in vivo mast cell degranulation induced by substance P in the auricular pinna, intradermal (local) pretreatment; parameters: species or system Sprague Pawley rats; details: compound 0.5 mg/kg intradermal on the auricular pinna, substance P (10⁻⁴ M) intradermal after 10 minutes, sacrifice 30' later
Protocol: • 2 weeks old Sprague Pawley rats, provided by Charles River from Calco, were locally treated by intradermal injection on the auricular pinna with the compounds in question at the dose of 0.5mg/kg, in a buffered aqueous solution at physiological pH. After 10 minutes a local administration, still by intradermal route, followed, of the substance P (10⁻⁴ M), able to induce a mast cells degranulation response. After 30' from the subtance P administration, the animals were sacrificed and the relative tissue samples (pinna) were taken, for an analysis of the morphological aspect of the mast cells residing in the connectival tissues after fixation and coloration with toluidine blue. The inhibition degree in mast cells degranulation in the tissues of the animals treated with the compounds under question, and compared with those of animals treated only with the physiological degranulation factor (substance P) was considered as a parameter for the biological activity.

[4] = test system: Peritoneal mast cells of rat; assay: in vitro degranulation of cultured peritoneal mast cells stimulated with substance P; format: cell-based
Protocol: Peritoneal mast cells of rat were taken according to the standard methodology described by Lagunoff (1975, Tech. Biochem. Biophys. Morphol. , 2, pp. 289-305).
The cells were then cultured in MEM which 10% fetal calf serum was added to and then incubated in a Haereus^R incubator for 30 minutes.
The derivatives under question at the concentration of 10⁻⁵ M were added to the incubation medium .
At the end of the incubation the physiological degranulation stimulus represented by the substance P (10⁻⁴) was added.
The cells were then centrifugated in order to remove the supernatant formed by the incubation medium and placed onto the slide after coloration with toluidine blue, for the analysis of the morphological aspect at the optical microcope.
Also under these conditions the parameter to be considered was the percentage of degranulated cells after stimulation with the Substance P.

[5] = compound 20 mg/kg subcutaneous, substance P (10⁻⁶ M) in the auricular pinna after 30 minutes, average of 500-800 cells
[6] = compound 10⁻⁵ M in the incubation medium, 30 minutes, then substance P (10⁻⁴)

| Compound | solubility (solubility in water) [µg/mL] | solubility ([2]; in DMSO) [µg/mL] | % of cells undergoing degranulation (mast cells degranulation [1]; [5]) [%] | other results |
| --- | --- | --- | --- | --- |
| O=C(CCCCCCCC(=O)NCCO)NCCO [(3), N,N'-bis-(2-hydroxyethyl)-nonandiamide] | – | – | 30 | % of cells undergoing degranulation (mast cells degranulation [3]): 30%; % of cells undergoing degranulation [4, 6]: 30%; solubility ([2]; solvent not stated): > 10000 µg/mL |
| O=C(NCCO)c1ccccc1C(=O)NCCO [(13), N,N' -bis (2-hydroxyethyl)-phthaloyldiamide] | > 10000 | – | 35.5 | solubility ([2]; in ethanol): > 10000 µg/mL |
| O=C(/C=C/C(=O)NCCO)NCCO [(1), N-fumaroylethanolamide] | < 20000 | < 20000 | 28 | % of cells undergoing degranulation (mast cells degranulation [3]): 40%; % of cells undergoing degranulation [4, 6]: 35%; solubility ([2]; in hot ethanol): < 20000 µg/mL |
| CC(O)CNC(=O)/C=C/C(=O)NCC(C)O (stereo not shown) [(10), N,N'-bis (2-hydroxypropyl)-fumaroyldiamide] | > 10000 | > 10000 | 38 | – |
| O=C(/C=C/C(=O)N(CCO)CCO)N(CCO)CCO [(2), N,N,N',N'-tetra (2-hydroxyethyl)-fumaroyl-diamide] | > 10000 | > 10000 | 32 | % of cells undergoing degranulation [4, 6]: 30%; solubility ([2]; in hot ethanol): > 10000 µg/mL |
| O=C(NCCO)c1cc(=O)c2c(OCC(O)COc3cccc4oc(C(=O)NCCO)cc(=O)c34)cccc2o1 [(11), N,N'-bis (2-hydroxyethyl)-cromoglycholyldiamide] | > 10000 | > 10000 | 28.6 | – |
| O=C(/C=C/CCCCCCCCC(=O)NCCO)NCCO [(6), N,N'-bis (2-hydroxyethyl)trans-2-dodecendiamide] | – | > 10000 | 33.6 | solubility (solubility in water; at 95 °C): > 10000 µg/mL; solubility ([2]; in ethanol): > 10000 µg/mL |
| CSCC[C@H](NC(=O)[C@H](CC(C)C)NC(=O)CNC(=O)[C@H](Cc1ccccc1)NC(=O)[C@H](Cc1ccccc1)NC(=O)[C@H](CCC(N)=O)NC(=O)[C@H](CCC(N)=O)NC(=O)[C@@H]1CCCN1C(=O)[C@H](CCCCN)NC(=O)[C@@H]1CCCN1C(=O)[C@@H](N)CCCNC(=N)N)C(N)=O [substance P, reference compound] | – | – | – | % of cells undergoing degranulation ([4]; substance P (10⁻⁴) alone): 96%; % of cells undergoing degranulation (mast cells degranulation [1]; substance P (10⁻⁶ M) in the auricular pinna alone, no pretreatment): 92% |
| O=C(/C=C/C=C/C(=O)NCCO)NCCO [(14), N,N'-bis (2-hydroxyethyl)-trans,trans-muconoyldiamide] | > 10000 | > 10000 | 40.2 | – |

Continued, in another order:

| solubility (solubility in water) [µg/mL] | solubility ([2]; in DMSO) [µg/mL] | Compound | % of cells undergoing degranulation (mast cells degranulation [1]; [5]) [%] | other results |
| --- | --- | --- | --- | --- |
| > 10000 | > 5000 | O=C(CC(=O)NCCO)NCCO [(7), N,N' -(2-hydroxyethyl)-malondiamide] | 35 | solubility ([2]; in ethanol): > 10000 µg/mL |
| > 10000 | > 10000 | O=C(CCCC(=O)NCCO)NCCO [(15), N,N'-bis-(2-hydroxyethyl)-glutaroyldiamide] | 30 | – |
| > 10000 | > 10000 | O=C(NCCO)C(=O)NCCO [(5), N,N'-bis(2-hydroxyethyl)-oxalyldiamide] | 45.5 | – |
| > 10000 | > 10000 | O=C(NCCO)[C@H](O)[C@@H](O)C(=O)NCCO [(9), (R,R)-(+) 2,3-dihydroxy-N,N'-bis (2-hydroxyethyl)-succinamide] | 32 | – |
| > 10000 | > 10000 | NC(CC(=O)NCCO)C(=O)NCCO (stereo not shown) [(12), N,N'-bis (2-hydroxyethyl)-aspartyldiamide] | 30 | – |
| > 10000 | > 10000 | O=C(CC(O)C(=O)NCCO)NCCO (racemic) [(8), N,N'-bis (2-hydroxyethyl)-(+/-)2-hydroxysuccinimide] | 31 | – |
| – | > 10000 | O=C(CCC(=O)NCCO)NCCO [(4), N,N'-bis-(2-hydroxyethyl)-succinamide] | 32 | % of cells undergoing degranulation [4, 6]: 35% |
